From ChEMBL document CHEMBL1201862, “PubChem BioAssay data set” (2004)
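How tested: cells in 96-well plates exposed to compound for 48 hours at five concentrations. GI50 is the concentration that inhibits growth by half.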 The source made the active and inactive calls. Cut-off read from the data, not from the text of the source: active = GI50 up to about 1.1 µM and inactive = higher.

Legend:
Assay in all cases: DTP human tumour cell line panel, 48 h
SK-MEL-5 = system: SK-MEL-5
ACHN = system: ACHN
NCI-H226 = system: NCI-H226
A498 = system: A498
RPMI-8226 = system: RPMI-8226
CAKI-1 = system: CAKI-1
IGROV-1 = system: IGROV-1
SK-MEL-28 = system: SK-MEL-28
SNB-19 = system: SNB-19
BT-549 = system: BT-549
CCRF-CEM = system: CCRF-CEM
MDA-N = system: MDA-N
NCI/ADR-RES = system: NCI/ADR-RES
UO-31 = system: UO-31
K562 = system: K562
SK-MEL-2 = system: SK-MEL-2
U-251 = system: U-251
T47D = system: T47D
KM12 = system: KM12
M14 = system: M14

Measured: GI50

CN(C)CC(O)c1ccc(Cl)c2ccccc12 (stereo not given)
inactive: SK-MEL-5 16.6 µM | ACHN 45 µM | NCI-H226 > 27.3 µM | A498 22.4 µM | RPMI-8226 3.08 µM | CAKI-1 25.6 µM | IGROV-1 39.5 µM | SK-MEL-28 19.6 µM | SNB-19 > 70 µM | BT-549 57.1 µM | CCRF-CEM 20 µM | MDA-N 24.8 µM | NCI/ADR-RES 81.5 µM | UO-31 19.9 µM | K562 1.15 µM | SK-MEL-2 19.3 µM | U-251 37.1 µM | T47D 21 µM | KM12 50.4 µM | M14 16.7 µM

CCCNC1=C2C[C@@H](C)C[C@@H](OC)[C@@H](OC(=O)CCCN)[C@H](C)/C=C(\C)[C@@H](OC(N)=O)[C@H](OC)/C=C\C=C(/C)C(=O)NC(=CC1=O)C2=O
inactive: SK-MEL-5 9.29 µM | ACHN 19.4 µM | NCI-H226 18.5 µM | A498 21.8 µM | RPMI-8226 5.94 µM | CAKI-1 20.3 µM | IGROV-1 16.1 µM | SK-MEL-28 17.6 µM | SNB-19 14.6 µM | BT-549 13.2 µM | CCRF-CEM 2.52 µM | MDA-N 10.3 µM | NCI/ADR-RES 28.8 µM | UO-31 19.2 µM | K562 4.75 µM | SK-MEL-2 14.9 µM | U-251 11.4 µM | T47D 12.7 µM | KM12 10.6 µM | M14 15.2 µM

OCCCNCC(O)c1ccc(OCc2ccccc2)c(OCc2ccccc2)c1 (stereo not given)
inactive: SK-MEL-5 7.03 µM | ACHN 10.4 µM | NCI-H226 12.4 µM | A498 11.9 µM | RPMI-8226 8.47 µM | CAKI-1 17.6 µM | IGROV-1 10.2 µM | SK-MEL-28 8.95 µM | SNB-19 17.3 µM | BT-549 15.8 µM | CCRF-CEM 8.15 µM | MDA-N 9.64 µM | NCI/ADR-RES 18.7 µM | UO-31 15 µM | K562 8.45 µM | SK-MEL-2 8.02 µM | U-251 9.75 µM | T47D 15.6 µM | KM12 12.5 µM | M14 17.1 µM

c1ccc(C2=NCCN2)c(C2=NCCN2)c1
inactive: SK-MEL-5 > 100 µM | ACHN > 100 µM | NCI-H226 > 100 µM | A498 > 100 µM | RPMI-8226 > 100 µM | CAKI-1 > 100 µM | IGROV-1 > 100 µM | SK-MEL-28 > 100 µM | SNB-19 > 100 µM | BT-549 > 100 µM | CCRF-CEM > 100 µM | MDA-N > 100 µM | NCI/ADR-RES > 100 µM | UO-31 > 100 µM | K562 > 100 µM | SK-MEL-2 > 100 µM | U-251 > 100 µM | T47D > 100 µM | KM12 > 100 µM | M14 > 100 µM

CN(C)CCNC(=O)c1cccc2[nH]c(-c3ccncc3)nc12
inactive: SK-MEL-5 2.75 µM | ACHN 6.53 µM | NCI-H226 15.2 µM | A498 4.05 µM | RPMI-8226 3 µM | CAKI-1 2.55 µM | IGROV-1 7.5 µM | SK-MEL-28 1.86 µM | SNB-19 10.7 µM | BT-549 11.4 µM | CCRF-CEM 2.29 µM | MDA-N 1.74 µM | NCI/ADR-RES 13.2 µM | UO-31 2.77 µM | K562 2.64 µM | SK-MEL-2 4.28 µM | U-251 3.1 µM | T47D 12.7 µM | KM12 4.17 µM | M14 1.82 µM
